≈ marks a conversion by molar mass, not a printed value.
Legend:
[1] = molecular target: T1, penicillin-binding protein 1b from E. coli (transglycosylase) (Escherichia coli, UniProt P02919); test: Lipid II polymerization / transglycosylase (TG) activity assay; assay type: biochemical; conditions: for remaining activity at 50 µM: read-out: TG Activity at various concentration of cmpd: 50 μM; for remaining activity at 100 µM: read-out: TG Activity at various concentration of cmpd: 100 μM; for TG Activity at various concentration of cmpd: 25 μM: 25 μM compound; for TG Activity at various concentration of cmpd: 25 μM / TG Activity at various concentration of cmpd: 50 μM / TG Activity at various concentration of cmpd: 100 μM: TG activity remaining (0% = full inhibition); for TG Activity at various concentration of cmpd: 50 μM: 50 μM compound; for TG Activity at various concentration of cmpd: 100 μM: 100 μM compound
T1 construct: PBP1b[58-804] was amplified from E. coli genomic DNA and cloned into the expression vector pET15b; His6 (N, cleaved yes); made in house; host or cells: E. coli BL21(DE3)
Experimental: Lipid II polymerization assays were carried out by incubating 100 μM fluorophore-labeled lipid II and penicillin-binding protein 1b from E. coli in tubes containing 10 ng/μL N-acetyl muramidase in 50 mM Tris.HCl (pH 8.0), 10 mM MgCl2, 0.1% Triton X-100, 10% DMSO, and 15% MeOH for 30 minutes (Van Nieuwenhze et al. J Am Chem Soc 2002, 124, 3656.). The fluorophore can be dansyl chloride, NBD, BODIPY, fluorescein. Reaction supernatants were then injected onto an anion-exchange HPLC column (SAX1, Supelco Co.) and eluted with a linear gradient of ammonium acetate (20 mM to 0.5 M) in methanol. The eluant was monitored for fluorescence with λex=466 nm and λem=535 nm.
Purified protein was concentrated in 20 mM Tris-HCl (pH 8.0), 300 mM NaCl, and 1 mM DDM. Instead of using Dansyl lipid II, 6-(N-(7-nitrobenz-2-oxa-1,3-diazol-4-yl)amino) hexanoyl (NBD)-labeled Lipid II was prepared as described (Taubes G (2008) Science 321:356-361; Payne D J (2008) Science 321:1644-1645) and used as a substrate to measure TG enzymatic activity, with approach similar to what has been described previously (Holtje J V (1998) Microbiol Mol Biol Rev 62:181-203). Assays were carried out by using the following condition: NBD-Lipid II, 20 nM protein, 50 mM Tris HCl (pH 8.0), 10 mMCaCl2, 0.085% decyl PEG (Anatrace), and 15% MeOH at 37° C. for 0, 1, 3, 5, 7, 9, 20, and 30 min. The concentration of NBD-Lipid II was varied from 1 to 100 μM to determine the rate of the TG activity. After the reaction, 200 μM moenomycin was added to stop the reaction, and 13 μM muramidase (Sigma-Aldrich) was added to digest the TG products to result in NBD-Lipid II without lipid tails. The fluorescent signal decrease of substrate and increase of NBD-Lipid II without lipid tails were detected by anion-exchange column SAX1 (Supelco) on HPLC (Hitachi). The elution procedures was a linear gradient of ammonium acetate (20 mM to 1 M) in MeOH monitored at λexcitation=466 nm and λemission=535 nm. The kinetic parameter was estimated by following the Michaelis-Menten equation. To investigate the importance of transmembrane (TM) helix, PBP1b and PBP1bΔTM (residues Met-1 to Leu-87 were removed) were extracted with the buffer containing 20 mM Tris-HCl (pH 8.0), 300 mM NaCl, and 13 mM FOS-CHOLINE-14 (Anatrace). The protein was purified by nickel chelation chromatography in the presence of 1 mM DDM. The activity assay was carried out by using the following condition: 12 μM NBD-Lipid II, 20 nM protein, 50 mM Tris-HCl (pH 8.0), 10 mM CaCl2, 0.085% decyl PEG, and 15% MeOH at 37° C. for time 0, 1, 3, 5, 7, 9, 20, and 30 min. The initial velocity was used to compare the activity of full-length PBP1b and PBP1bΔTM.

[2] = system: Staphylococcus aureus (ATCC29213, SA); test: Minimal inhibitory concentration (MIC), SA; assay type: cell-based; conditions: for MIC: Staphylococcus aureus, ATCC29213, Staphylococcus aureus ATCC29213, read-out: MIC SA; for MIC SA: Staphylococcus aureus ATCC29213
Experimental: (§1) The minimal inhibitory concentration (MIC) of tested compounds was determined following the NCCLS standard. The experiments were conducted in 96-well microtiter plates using two-fold dilutions in Muller-Hilton broth with (Streptococcus pneumonia) or without blood (Bacillus subtilis, Enterococcus faecalis, Staphylococcus aureus, Escherichia coli, MRSA, Actinetobacter baumannii, Pseudomonas aeruginosa, Stenotrophomonas maltophilia, and Mycobacterium smegmatis). Exponentially growing cells at 5×10^5 cells/ml were incubated with test compounds at various concentrations. After an 18 h to 24 h incubation at 37° C., MIC was determined as the minimal concentration of the compound that prevents bacterial growth.

[3] = system: methicillin-resistant Staphylococcus aureus (ATCC33592, MRSA); test: Minimal inhibitory concentration (MIC), MRSA; assay type: cell-based; conditions: methicillin-resistant Staphylococcus aureus ATCC33592; for MIC: Staphylococcus aureus, read-out: MIC MRSA
Experimental: as §1

[4] = system: Mycobacterium smegmatis (ATCC11565, MS); test: Minimal inhibitory concentration (MIC), MS; assay type: cell-based; conditions: for MIC MS: Mycobacterium smegmatis ATCC11565; for MIC: Mycolicibacterium smegmatis, ATCC11565, Mycobacterium smegmatis ATCC11565, read-out: MIC MS
Experimental: as §1

T1 sequence (P02919 58-804): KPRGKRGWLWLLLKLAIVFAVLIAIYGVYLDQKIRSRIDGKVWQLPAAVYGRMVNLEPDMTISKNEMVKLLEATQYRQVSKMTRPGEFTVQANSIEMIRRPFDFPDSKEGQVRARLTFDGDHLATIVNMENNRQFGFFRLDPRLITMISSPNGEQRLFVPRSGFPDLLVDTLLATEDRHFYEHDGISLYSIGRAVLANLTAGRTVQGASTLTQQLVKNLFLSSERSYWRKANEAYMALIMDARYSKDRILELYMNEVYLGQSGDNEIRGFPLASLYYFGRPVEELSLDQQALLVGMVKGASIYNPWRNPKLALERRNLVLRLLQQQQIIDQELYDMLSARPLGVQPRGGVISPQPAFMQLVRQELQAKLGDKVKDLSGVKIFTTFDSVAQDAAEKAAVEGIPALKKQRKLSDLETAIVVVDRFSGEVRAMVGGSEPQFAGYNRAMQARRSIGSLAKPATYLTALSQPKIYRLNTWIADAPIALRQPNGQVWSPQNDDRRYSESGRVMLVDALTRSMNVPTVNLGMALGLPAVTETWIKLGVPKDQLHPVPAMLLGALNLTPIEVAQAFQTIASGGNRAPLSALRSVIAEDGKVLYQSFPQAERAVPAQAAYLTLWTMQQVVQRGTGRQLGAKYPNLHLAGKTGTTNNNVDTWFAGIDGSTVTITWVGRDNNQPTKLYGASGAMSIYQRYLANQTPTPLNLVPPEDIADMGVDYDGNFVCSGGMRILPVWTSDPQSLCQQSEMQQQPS

Compound	TG Activity at various concentration of cmpd: 50 μM [1] [%]	MIC SA [2] [µg/mL]	TG Activity at various concentration of cmpd: 100 μM [1] [%]	also measured
Cc1ccc(NC(=O)c2ccc(O)c(O)c2O)cc1Cl [Compound A5N3]				remaining activity at 50 µM [1]: 100%; remaining activity at 100 µM [1]: 0%; MIC [2]: 4 µg/mL (≈ 13.6 µM)
O=C(c1ccc(Cl)cc1)c1ccc(Oc2ccc(Cl)cc2)c(NC(=O)c2cc(I)cc(I)c2O)c1 [Compound 207]	0	8 (≈ 11 µM)		TG Activity at various concentration of cmpd: 25 μM [1]: 20%; MIC MRSA [3]: 4 µg/mL (≈ 5.48 µM); MIC MS [4]: 32 µg/mL (≈ 43.8 µM)
Cc1ccc(NC(=O)c2cc(Br)cc(Br)c2O)cc1Cl [KTS-7]				remaining activity at 50 µM [1]: 100%; remaining activity at 100 µM [1]: 100%; MIC [2]: 1 µg/mL (≈ 2.38 µM); MIC [3]: 1 µg/mL (≈ 2.38 µM); MIC [4]: 1 µg/mL (≈ 2.38 µM)
O=C(Nc1cc(Cl)ccc1Oc1ccccc1)c1ccccc1O [Compound A3N1]	100	1 (≈ 2.94 µM)	100	
O=C(Nc1ccccc1Oc1ccccc1)c1ccccc1O [Compound A3N2]	100	8 (≈ 26.2 µM)	100	
Cc1ccc(C(C)C)c(Oc2cc(Cl)ccc2NC(=O)c2cc(Br)cc(Br)c2O)c1 [Compound 202]	0	1 (≈ 1.81 µM)		TG Activity at various concentration of cmpd: 25 μM [1]: 20%; MIC MRSA [3]: 1 µg/mL (≈ 1.81 µM); MIC MS [4]: 1 µg/mL (≈ 1.81 µM)
O=C(Nc1ccc(Cl)cc1)c1cc(Br)cc(Br)c1O [KTS-9]	100	1 (≈ 2.47 µM)	100	MIC MRSA [3]: 1 µg/mL (≈ 2.47 µM); MIC MS [4]: 2 µg/mL (≈ 4.93 µM)
Cc1ccc(NC(=O)c2ccc(O)cc2)cc1Cl [Compound A6N3]	100	32 (≈ 122 µM)	100	
Cc1ccc(C(C)C)c(Oc2ccccc2NC(=O)c2cc(Br)cc(Br)c2O)c1 [Compound 204]	0	1 (≈ 1.93 µM)		TG Activity at various concentration of cmpd: 25 μM [1]: 50%; MIC MRSA [3]: 4 µg/mL (≈ 7.7 µM); MIC MS [4]: 8 µg/mL (≈ 15.4 µM)
O=C(Nc1cc(Cl)ccc1Oc1ccccc1)c1ccc(O)c(O)c1O [Compound A5N1]	100	8 (≈ 21.5 µM)	0	
Cc1ccc(NC(=O)c2cc(Br)cc(Br)c2)cc1Cl [Compound A2N3]	100	>32	100	
Cc1ccc(C(C)C)cc1Oc1ccc(Cl)cc1NC(=O)c1cc(Cl)ccc1O [Compound 205]	90	0.5 (≈ 1.16 µM)		MIC MRSA [3]: 0.5 µg/mL (≈ 1.16 µM); MIC MS [4]: 1 µg/mL (≈ 2.32 µM)
O=C(Nc1ccccc1Oc1ccccc1)c1cc(Br)cc(Br)c1 [Compound A2N2]	100	>32	100	
Cc1ccc(NC(=O)c2ccccc2O)cc1Cl [Compound A3N3]				remaining activity at 50 µM [1]: 100%; remaining activity at 100 µM [1]: 100%; MIC [2]: 4 µg/mL (≈ 15.3 µM)
COc1ccc(NC(=O)c2ccccc2O)cc1 [Compound A3N6]				remaining activity at 50 µM [1]: 100%; remaining activity at 100 µM [1]: 100%; MIC [2]: > 32 µg/mL
O=C(Nc1ccc(Cl)cc1)c1ccccc1O [Compound A3N4]				remaining activity at 50 µM [1]: 100%; remaining activity at 100 µM [1]: 100%; MIC [2]: 8 µg/mL (≈ 32.3 µM)
O=C(Nc1ccccc1Oc1ccccc1)c1cc(Br)cc(Br)c1O [Compound A1N2]	100	>32	100	
O=C(Nc1cc(Cl)ccc1Cl)c1cc(Cl)cc(Cl)c1O [Compound 141]				MIC [2]: 1 µg/mL (≈ 2.85 µM); MIC [3]: 0.5 µg/mL (≈ 1.42 µM); MIC [4]: 2 µg/mL (≈ 5.7 µM)
O=C(Nc1cc(Cl)ccc1Oc1ccccc1)c1cc(Br)cc(Br)c1 [Compound A2N1]	100	>32	100	
O=C(Nc1ccccc1Oc1ccccc1)c1ccc(O)cc1 [Compound A6N2]	100	>32	100	
Cc1ccc(NC(=O)c2ccccc2)cc1Cl [Compound A4N3]	100	>32	100	
O=C(Nc1ccc(Cl)cc1)c1cc(Br)cc(Br)c1O [Compound A1N4]	100	1 (≈ 2.47 µM)		
O=C(Nc1cc(Cl)ccc1Oc1ccccc1)c1ccc(O)cc1 [Compound A6N1]	100	16 (≈ 47.1 µM)	100	
O=C(Nc1ccccc1Oc1ccccc1)c1ccc(O)c(O)c1O [Compound A5N2]	100	8 (≈ 23.7 µM)	0	
O=C(Nc1cc(Cl)ccc1Oc1ccccc1)c1ccccc1 [Compound A4N1]	100	>32	100	
O=C(Nc1cc(Cl)c(Cl)c(Cl)c1)c1cc(Cl)cc(Cl)c1O [Compound 142]		0.5 (≈ 1.3 µM)		MIC MRSA [3]: 0.5 µg/mL (≈ 1.3 µM); MIC MS [4]: 0.125 µg/mL (≈ 0.324 µM)
O=C(Nc1ccc([N+](=O)[O-])cc1)c1ccccc1O [Compound A3N5]				remaining activity at 50 µM [1]: 100%; remaining activity at 100 µM [1]: 100%; MIC [2]: 4 µg/mL (≈ 15.5 µM)

From patent publication US9890111B2, “Crystal structure of bifunctional transglycosylase PBP1b from E. coli and inhibitors thereof” (Academia Sinica, priority 2008, dated 2018)
